# Experimental data published in patent US20250129055A1, “GLUCOSIDE DERIVATIVE, AND PREPARATION METHOD THEREFOR AND APPLICATION THEREOF” (BEIJING INCREASE INNOVATIVE DRUG CO., LTD., priority 2020, published 2025).
# Target: SGLT2 (Homo sapiens (Human), UniProt P31639)
# Assay: In vitro SGLT2 inhibitory activity: 1-NBDG uptake by CHO-SGLT2 cells
# Type: cell-based
# Details: for IC50: CHO-SGLT2 cells, 1-NBDG uptake, read-out: IC50 inhibiting SGLT2
# Procedure: The effect of the compounds on SGLT2-mediated glucose uptake was investigated by establishing an SGLT2 overexpression cell model and using the fluorescent glucose (2-deoxy-1-[(7-nitro-2,1,3-benzoxadiazol-4-yl)amino]-D-glucose, 1-NBDG) tracer method to screen out candidate compounds with SGLT2 inhibitory activity.
# The humanized SGLT2 overexpression cells (CHO-SGLT2) constructed from Chinese hamster ovary (CHO) cells were cultured in 1640 medium (Gibco) containing 10% fetal bovine serum (Gibco, 10270), subcultured at a ratio of 1:3, and replaced with new culture medium 3 times every week. Fluorescence detection cell culture plates and other culture flasks were purchased from Corning Company. […] Appropriate amounts of all compounds were weighed, prepared into 100 mM stock solutions with DMSO, and stored at 4° C. in the dark.
# Before the 1-NBDG uptake test, CHO-SGLT2 cells were digested and seeded in a 96-well cell culture plate with a cell number of 40,000/well. After the cells were cultured for 48 h, the medium was discarded, and 100 μl of choline buffer was added to each well. After the cells were starved at 37° C. for 30 min, the choline buffer was discarded and 100 μl of the newly prepared Na^+ sodium buffer containing […] 1-NBDG and the test compounds (Compound) was added. The solvent DMSO was used as the negative control (Control) for the test compounds.
# The Na^+ sodium buffer without 1-NBDG was used as the blank control (Blank). After 1 h of culture, the incubation solution was discarded. The cells were washed with choline buffer solution 3 times, and then 50 μl of neutral lysate was added to each well to lyse the cells on ice for 10 min. The fluorescence value of each well was detected using a multi-functional microplate reader at […].
# At least 3 experimental replicates were set for each compound at indicated concentrations, and the data were expressed as mean±SEM. Uptake amount of 1-NBDG by cells=fluorescence value1-NBDG-fluorescence valueBlank. Inhibition rate on uptake amount of SGLT2 glucose (%)=(uptake amountcontrol−uptake amountcompound)/uptake amountcontrol×100%. Concentration-inhibition rate curves were plotted using Graphpad Prism software, and IC50 values were calculated accordingly.
# SGLT2, sequence (P31639 whole entry): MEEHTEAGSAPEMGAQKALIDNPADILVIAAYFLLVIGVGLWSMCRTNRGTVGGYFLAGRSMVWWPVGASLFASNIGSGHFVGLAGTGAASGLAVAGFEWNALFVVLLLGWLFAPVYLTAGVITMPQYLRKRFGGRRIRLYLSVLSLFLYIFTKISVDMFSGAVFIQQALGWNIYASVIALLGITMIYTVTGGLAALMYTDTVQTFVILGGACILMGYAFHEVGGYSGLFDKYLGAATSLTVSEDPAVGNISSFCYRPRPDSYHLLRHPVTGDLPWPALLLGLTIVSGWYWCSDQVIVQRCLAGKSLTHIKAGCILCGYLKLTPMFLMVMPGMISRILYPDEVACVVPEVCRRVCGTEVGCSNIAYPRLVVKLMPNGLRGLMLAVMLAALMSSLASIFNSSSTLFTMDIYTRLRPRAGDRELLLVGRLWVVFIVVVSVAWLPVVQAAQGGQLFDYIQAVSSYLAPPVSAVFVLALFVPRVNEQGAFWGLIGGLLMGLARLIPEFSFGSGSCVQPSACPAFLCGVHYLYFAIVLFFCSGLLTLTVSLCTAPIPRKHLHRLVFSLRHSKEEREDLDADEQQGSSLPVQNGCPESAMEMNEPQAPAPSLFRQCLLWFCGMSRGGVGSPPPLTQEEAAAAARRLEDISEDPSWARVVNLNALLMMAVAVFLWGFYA
structure (smiles),measurement,setting,value
"CCOc1ccc(Oc2cc([C@H]3O[C@H](CO)[C@@H](O)[C@H](O)[C@H]3O)ccc2Cl)cc1 [Compound 3, (2R,3R,4R,5S,6R)-2-[4-chloro-3-(4-ethoxyphenoxy)phenyl]-6-(hydroxymethyl)oxane-3,4,5-triol]",IC50,,6.75 nM
same,Inhibition rate of compounds on SGLT2 (%),compound concentration 1 × 10^−5 mol/L,96.4 ± 8.4%
same,Inhibition rate of compounds on SGLT2 (%),compound concentration 5 × 10^−7 mol/L,78.7 ± 1.9%
same,Inhibition rate of compounds on SGLT2 (%),compound concentration 5 × 10^−8 mol/L,71.7 ± 1.7%
same,Inhibition rate of compounds on SGLT2 (%),compound concentration 5 × 10^−9 mol/L,42.8 ± 2.3%
same,Inhibition rate of compounds on SGLT2 (%),compound concentration 5 × 10^−10 mol/L,8.7 ± 2.1%
same,Inhibition rate of compounds on SGLT2 (%),compound concentration 5 × 10^−11 mol/L,3.7 ± 4.2%
CS[C@H]1O[C@@H](c2cc3c(c(Cc4ccc5c(c4)OCCO5)c2)CCC3)[C@H](O)[C@@H](O)[C@@H]1O [Compound 5],IC50,,2.26 nM
CS[C@H]1O[C@@H](c2ccc(C)c(Cc3ccc4c(c3)CC4)c2)[C@H](O)[C@@H](O)[C@@H]1O [Compound 12],IC50,,1.01 nM
OC[C@H]1O[C@@H](c2ccc(F)c(Cc3ccc4c(c3)OCCO4)c2)[C@H](O)[C@@H](O)[C@@H]1O [Compound 27],IC50,,3.32 nM
CS[C@H]1O[C@@H](c2ccc(C)c(Cc3ccc4c(c3)CCCO4)c2)[C@H](O)[C@@H](O)[C@@H]1O [Compound 8],IC50,,0.356 nM
